In patent US20240307365A1, “Pharmaceutical Composition for Preventing or Treating Systemic Sclerosis” (Daewoong Pharmaceutical Co., Ltd., priority 2021, published 2024):
Several values for one entry are separate records, joined by “and”; a condition that tells them apart may be missing. Equal entries are not always repeated.

Assays:
[1] = test system: systemic sclerosis-associated interstitial lung disease (SSc-ILD) mouse model administered with BLM; assay: SSc-ILD bleomycin osmotic pump mouse model: lung weight; format: in vivo, C57BL/6 mice; design: Lung weight: unit not given here; conditions: for Lung weight: individual animals 1-9, unit not given
Text: (§1) Seven-week-old C57BL/6 mice were obtained and acclimatized indoors for 5 days or more. For the systemic sclerosis-related interstitial lung disease model, an osmotic pump injection model was designed. For that reason, if it is not modeling using an osmotic pump, it is a model in which BLM should be injected subcutaneously into the back of the test animal every day for 4 weeks, and this is because these tests can cause very extreme pain at the site of administration.
(§2) The incision site was sutured, an osmotic pump was inserted, bleomycin was administered for 1 week, and then the osmotic pump was removed on the 10th day. It was confirmed that systemic sclerosis-associated interstitial lung disease was induced in a mouse model administered with BLM for 1 week, and specific experimental groups are shown in Table 1 below.

[2] = test system: systemic sclerosis-associated interstitial lung disease (SSc-ILD) mouse model administered with BLM; assay: SSc-ILD bleomycin osmotic pump mouse model: skin thickness (H&E, MT stain); format: in vivo, C57BL/6 mice; conditions: day 28; for Skin thickness: individual animals 1-9
Text: as §1, §2
On the day 28, skin tissues were extracted from mice and subjected to H&E and Mansson's Trichrome (MT stain). The skin thickness of 10 sites was measured randomly through the image of the photograph in which stain progressed (progressed at a minimum interval of 200˜300 um). The entire area of the photograph was measured as evenly as possible, and the areas where the stain tissue was damaged were excluded from the measurement.

[3] = test system: systemic sclerosis-associated interstitial lung disease (SSc-ILD) mouse model administered with BLM; assay: SSc-ILD bleomycin osmotic pump mouse model: body weight (%); format: in vivo, C57BL/6 mice; conditions: for Body weight (%) change: individual animals 1-9
Text: as §1, §2

[4] = test system: systemic sclerosis-associated interstitial lung disease (SSc-ILD) mouse model administered with BLM; assay: SSc-ILD bleomycin osmotic pump mouse model: collagen content (hydroxyproline) in skin tissue; format: in vivo, C57BL/6 mice; conditions: for hydroxyproline value, ratio compared to a normal group: skin tissue, individual animals 1-9
Text: as §1, §2
An attempt was made to measuring the amount of hydroxyproline in the mouse and thus indirectly measure the collagen content. Analysis was performed using INSOLUBLE Collagen Assay (Biocolor, S2000), and the details are as follows.
First, 10 mg of frozen skin tissue was pulverized with 100 ul of fragmentation reagent. 100 ul of 37% HCl was added and incubated at 65° C. for 3 hours. The contents of the tube were shaken at 30 minute intervals to aid tissue disintegration. Centrifugation was performed at 12,000 rpm for 10 minutes. After centrifugation, it was transferred to a 1.5 ml tube. 50 ul was taken from a sample between 10 and 100 ul, distilled water was added, and the sample was prepared so as to match with 100 ul.
1 ml of dye was added to 100 ul of the prepared sample, and mixed for 30 minutes. The mixture was centrifuged at 12,000 rpm for 10 minutes, and then transferred to a new tube. The dye was removed with 750 ul of ice-cold acid-salt wash reagent. After centrifugation at 12,000 rpm for 10 minutes, it was transferred to a new tube. The tube was mixed with the collagen-binding dye using a vortex mixer, and gollagen binding dye was dissolved within 10 minutes to complete the measurement preparation (measurement should be completed within 2˜3 hours). The tube cap was closed until it was ready to measure absorbance.
200 ul of each sample was transferred to an individual well of a 96 micro-well plate, and the absorbance was measured at 560 nm.

[5] = test system: systemic sclerosis-associated interstitial lung disease (SSc-ILD) mouse model administered with BLM; assay: SSc-ILD bleomycin osmotic pump mouse model: lung function evaluation (SpO2); format: in vivo, C57BL/6 mice
Text: as §1, §2
This lung function evaluation is an experiment to show the therapeutic effect of this active substance in patients with systemic sclerosis-associated interstitial lung diseases, and is the most direct and important evaluation index that has the greatest influence on the symptoms and quality of life of patients with systemic sclerosis-associated interstitial lung diseases, unlike the general pulmonary fibrosis ameliorating effect. This is an experiment that can most directly show the effect of improving lung function in an animal model of systemic sclerosis-associated interstitial lung disease by measuring the oxygen concentration in the body.
On the 21st day, it was measured with a SpO2 measuring device (Berry, Veterinary Pulse Oximeter) via the abdominal side of the mouse, and the results are shown in Table 5 and FIG. 3.

[6] = test system: mouse model of systemic scleroderma skin organoid transplantation; assay: Skin hardening alleviation in 3D skin organoid transplantation mouse model (skin thickness, fibrosis factors by immunochemical staining); format: in vivo, SCID mice; conditions: daily for 2 weeks
Text: The previously constructed 3D skin organoid derived from the systemic scleroderma patient iPSC was transplanted into SCID mice to construct a mouse model of systemic scleroderma. The mouse skin tissue was cut into 1×2 cm, and then 3D skin organoid skin tissue was sutured to the mouse skin. For a skin transplantation method, it was transplanted to mice or the like using a tie-over dressing method used clinically. After placing a gauze on the suture site, it was tied with a suture and dressed with a band.
The active ingredient was subcutaneously administered at a dose of 3 mg/kg and 10 mg/kg daily for 2 weeks to a mouse model of systemic scleroderma skin organoid transplantation. For the negative control group (NC), a physiological saline was administered to a normal skin tissue, and for the positive control group (SSc), a physiological saline was administered to a systemic scleroderma skin organoid transplanted skin tissue. The skin thickness, which is the primary evaluation index of systemic scleroderma, was measured through immunochemical staining, and the results are shown in FIG. 2.
To confirm whether the fibrosis factor is reduced in systemic scleroderma skin tissue by the active ingredient, immunochemical staining was performed and the results are shown in FIG. 3.

[7] = test system: 3D skin organoid prepared using iPSC-derived fibroblasts from patients with systemic dermatosis; assay: Skin hardening alleviation in 3D skin organoid model (thickness by H&E staining); format: cell-based; conditions: 1 μM in DMSO solution, control DMSO only (FIG. 1)
Procedure: A 3D skin organoid was prepared using iPSC-derived fibroblasts from patients with systemic dermatosis according to the method described in the literature (Lancet. 2009 Nov. 21;374(9703):1745-53). When 1 μM of active ingredient was treated with DMSO solution, it was confirmed through H&E immunochemical staining that the thickness of the 3D skin organoid was reduced (FIG. 1). The control group was treated with only DMSO.

[8] = 3 and 10 mg/kg subcutaneous, immunochemical staining, *p<0.05, ***p<0.001 (FIG. 3)

COC(=O)c1ccc2c(c1)NC(=O)/C2=C(\Nc1ccc(N(C)C(=O)CN2CCN(C)CC2)cc1)c1ccccc1 [NIN, Nintedanib, reference compound] was tested, and the Lung weight ([1]; nintedanib 60 mg/kg oral) was 0.96 and 0.99 (2×) and 1.04 and 0.95 and 1.01 and 0.98 and 1.16 and 0.89, the Skin thickness ([2]; nintedanib 60 mg/kg oral) was 675.558 μm and 623.019 μm and 651.831 μm and 660.809 μm and 649.479 μm and 620.302 μm and 651.572 μm and 856.355 μm and 664.973 μm and the “Body weight (%) change” value ([3]; nintedanib 60 mg/kg oral) was −0.45% and 0.58% and 8.79% and 0.44% and −2.94% and 2.46% and 4.14% and 1.78% and 4.49%. For the same molecule, the “hydroxyproline value, ratio compared to a normal group” value (shortened to “hydroxyproline value, ratio”) ([4]; nintedanib 60 mg/kg oral) was 1.34 and 1.83 and 1.63 and 1.53 and 1.08 and 1.37 and 1.43 and 1.65 and 1.45.
For O[C@H]1CCCN[C@@H]1CCCn1cnc2c(Cl)c(Cl)ccc21 [Active ingredient], the “oxygen saturation recovery rate versus nintedanib (60 mg/kg) group” value ([5]; 30 mg/kg oral, day 21) was “comparable to that of nintedanib”, the “SpO2 (oxygen saturation) compared with the vehicle” value ([5]; 30 mg/kg oral, day 21, p<0.001) was “higher oxygen saturation” and the “SpO2 (oxygen saturation), significance” value ([5]; from 10 mg/kg oral, day 21 (FIG. 7)) was “significant results”. For the same molecule, the Lung weight ([1]; 3 mg/kg oral) was 1.01 and 1.14 (2×) and 1.08 (2×) and 0.98 (2×) and 1.15 and 0.92, the Lung weight ([1]; 10 mg/kg oral) was 0.98 and 1.22 and 1.14 and 1.12 and 0.95 and 1.16 and 0.99 and 0.93 and 1.08 and the “change in lung weight corrected by body weight, significance” value ([1]; 30 mg/kg oral) was “significance increased to p<0.01”. For the same molecule, the Lung weight ([1]; 30 mg/kg oral) was 1.10 and 0.99 and 0.90 and 0.98 (2×) and 1.03 and 0.94 and 1.09 and 0.97, the “change in lung weight corrected by body weight, significance” value ([1]; from 10 mg/kg oral) was “showed a significance” and the “change in lung weight, significance” value ([1]; only at 30 mg/kg oral) was “significant tendency”. The “density of collagen in the skin (MT stain)” value ([2]; 3 mg/kg oral) was “tendency to decrease”, the “skin thickness, significance” value ([2]; 3 mg/kg oral) was “did not significantly decrease” and the Skin thickness ([2]; 3 mg/kg oral) was 809.254 μm and 771.562 μm and 778.660 μm and 688.725 μm and 759.037 μm and 677.319 μm and 744.986 μm and 904.141 μm and 641.841 μm. The “skin thickness improvement effect compared with 60 mg/kg of nintedanib” value ([2]; 10 mg/kg oral) was “superior”, the Skin thickness ([2]; 10 mg/kg oral) was 526.170 μm and 521.027 μm and 425.415 μm and 456.862 μm and 672.616 μm and 593.826 μm and 601.558 μm and 809.106 μm and 708.308 μm and the “skin thickness, significance” value ([2]; 30 mg/kg oral, P<0.0001 or less) was “very significant results”. The Skin thickness ([2]; 30 mg/kg oral) was 475.515 μm and 412.271 μm and 525.311 μm and 593.963 μm and 526.388 μm and 443.336 μm and 601.558 μm and 558.530 μm and 479.961 μm, the “collagen density in the skin (MT stain)” value ([2]; active ingredient administered as a whole) was “decreased” and the “skin thickness, significance” value ([2]; from 10 mg/kg oral) was “significant results”. For the same molecule, the “thickness of the skin tissue” value ([6]; 3 mg/kg and 10 mg/kg subcutaneous, ***p<0.001 (FIG. 2)) was “significantly reduced”, the “fibrotic factor Collagen I in skin tissue” value [6, 8] was “significantly reduced” and the “fibrotic factor Collagen III in skin tissue” value [6, 8] was “significantly reduced”. For the same molecule, the “fibrotic factor aSMA in skin tissue” value [6, 8] was “significantly reduced”, the “thickness of the 3D skin organoid” value [7] was “reduced” and the “Body weight (%) change” value ([3]; 3 mg/kg oral, 28 days) was −2.45% and −2.14% and 1.34% and −0.33% and −1.93% and 8.65% and 3.02% and −0.36% and 1.07%. For the same molecule, the “Body weight (%) change” value ([3]; 10 mg/kg oral, 28 days) was 4.62% and 2.54% and 1.96% and −4.1% and −2.48% and 0.48% and 0.14% and 4.88% and 4.78%, the “Body weight (%) change” value ([3]; 30 mg/kg oral, 28 days) was 12.09% and 7.78% and 2.13% and 2.34% and 1.45% and 9.52% and 5.35% and −2.86% and 7.57% and the “body weight compared to the vehicle” value ([3]; 30 mg/kg oral, 28 days, p<0.01) was “significantly increased”. For the same molecule, the “changes in body weight, significance” value ([3]; from 3 mg/kg oral, 28 days) was “significant results”, the “hydroxyproline value, ratio” value ([4]; 3 mg/kg oral) was 1.51 (2×) and 1.96 and 1.66 and 1.94 and 1.85 and 1.74 and 1.57 and 2.01 and the “hydroxyproline value, ratio” value ([4]; 10 mg/kg oral) was 2.27 and 2.26 (2×) and 1.70 and 1.93 and 1.57 and 2.16 and 1.82 and 2.10. For the same molecule, the “amount of hydroxyproline in the skin, significance” value ([4]; 30 mg/kg oral, P<0.001 or less) was “very significant result”, the “hydroxyproline value, ratio” value ([4]; 30 mg/kg oral) was 1.70 and 1.48 and 1.81 and 2.04 and 2.09 (2×) and 1.75 and 1.77 and 1.28 and the “amount of hydroxyproline in the skin, significance” value ([4]; from 10 mg/kg oral) was “significant results”.
